Test results: US5902794A (priority 1997, dated 1999)
Read-outs that look alike come from different tables or passages of the source.

Key:
[1] = system: hormone-independent breast and colon cancer cell lines; assay: growth inhibition of hormone-independent breast and colon cancer lines; type: cell-based, human; details: for growth inhibitory effect: alone; for enhancement of the effect of the site-selective compounds: in combination with the site-selective compounds
Procedure: (§1) All breast cancer cell lines were grown in IMEM supplemented with 10% fetal bovine serum, 20 mM HEPES, penicillin-streptomycin, and extra glutamine. Colon carcinoma cell lines were grown in EMEM supplemented with 10% FBS, EMEM, NEAA, HEPES 20 mM, extra glutamine, and penicillin-streptomycin. The cells were grown at 37° C. in humidified incubators in an atmosphere of 5% CO2.
(§2) For cell growth experiments, 2-3×10^5 cells/60 mm dish were seeded, and 24 hours later (Day 0), the medium was removed, and fresh medium and the additives were added then and every 48 hours thereafter The compounds of the present invention were added using 100× concentrated stock solutions. At desired times, cell counts in duplicate were performed on a Coulter counter after harvesting the cells with gentle trypsinization.

[2] = system: cultured human fibroblasts; details: cited from earlier work
[3] = system: leukemic cell lines (HL-60, K-562, myc-K562, Molt-4); assay: growth inhibition and viability of leukemic cell lines; type: cell-based, human; details: for growth inhibitory effect: alone; for enhancement of the analog effect: in combination with the analogue
R^II = details: cited from earlier work
R^I receptor = details: cited from earlier work
YAC lymphoma cell = details: mouse, in vivo; cited from earlier work
[4] = system: MCF-7 ras breast cancer cell line; assay: synergistic growth inhibition by C-6 and C-8 analogue combination; type: cell-based; details: Homo sapiens, MCF7, alone, read-out: percentage growth inhibition of analogue added alone
Procedure: as §1, §2
Synergism quotient was defined as the net growth inhibitory effect of the analogue combination divided by the sum of the net analogue effects on growth inhibition A quotient of >1 indicates a synergistic effect, while a quotient of <1 indicates an antagonistic effect.
Synergism of growth inhibition was determined by treatment of
cells with C-6 analogues and C-8 analogues alone and in combination at
Day 0 and Day 2 and counting the cell number at Day 4

[5] = system: breast and colon cancer cells; assay: effect on cell morphology; type: cell-based, human
From the text: The photographs were taken on Day 4, ×160.
Furthermore, the synergistic growth inhibitory effect of C-6 and C-8 analogue combinations was also reflected in the change in the cell morphology.

[6] = system: hormone-dependent breast cancer lines; details: millimolar concentrations; previously reported; cited from earlier work
[7] = system: breast (MCF-7) and (LS-174T) colon cancer cell lines; assay: growth inhibition of breast (MCF-7) and colon (LS-174T) cancer cell lines; type: cell-based, human; details: 50 micromolar
cells = assay: growth inhibition by 8-Cl-AMP; type: cell-based; details: as high as 100 microM
[8] = system: R^I cAMP receptor protein (LS-174T); assay: photoaffinity labelling of R^I cAMP receptor protein, LS-174T; type: cell-based, human; details: 10 microM, 3 days; control 1.0
Procedure: (§3) M is marker proteins of known molecular weight.
(§4) The incubations were carried out at 23° C. for 60 minutes in 96-well immunoplates. The reaction mixtures were then irradiated for 30 seconds at 254 nm, placing a Mineralite UVS-11 hand lamp directly onto the plate. The samples were mixed with 25 microliters of 3× sample buffer (3% SDS, 15% beta-mercaptoethanol, 30 mM Tris, 30% glycerol, 1% bromophenol blue saturated solution), boiled for 3 minutes, and centrifuged at 700×g for five minutes. The samples containing 50-100 micrograms of protein were subjected to 0.05% SDS-12% PAGE. The gels were fixed, dried, and exposed to X-ray films overnight. The protein concentrations were determined by the method of Lowry et al., (J. Biol. Chem. 193: 265-275, 1951) with bovine serum albumin as standard.
(§5) The levels of the receptor proteins are expressed relative to the R^I level in the untreated control cells of MDA-MB-231 and LS-174T, which are each set equal to 1.0 O.D.; the scale was expanded to differentiate the lower intensity bands.

MDA-MB-231 = assay: growth of MDA-MB-231 cells; type: cell-based; details: Homo sapiens, MDA-MB-231, 72 h; 10 microM, 3 days
Procedure: as §3, §1, §2

[9] = system: R^II cAMP receptor protein (MDA-MB-231); assay: photoaffinity labelling of R^II cAMP receptor protein, MDA-MB-231; type: cell-based, human; details: 10 microM, 3 days; relative to control R^I
Procedure: as §3, §4, §5

[10] = system: breast and colon cancer cell lines; assay: cell cycle progression of breast and colon cancer cell lines; type: cell-based, human; details: vs untreated control cells
Procedure: DNA histograms were generated on FACS II by using the DNA intercalating dye propidium iodide as described by Braylan et al. (Cytometry 2: 337-343, 1982). The percentage of cells in each cycle phase was calculated by using a PDP-11/34 computer and software as described by Neckers et al. (Mol. Cell. Biol. 6: 4244-4250, 1986).
A determination was made whether the reduced cell proliferation observed in the cancer cell lines after treatment with the compounds of the present invention is due to a specific block in one phase of the cell cycle.

[11] = system: R^I and R^II cAMP receptor proteins in breast (MDA-MB-231) and colon (LS-174T) cancer cells; assay: R^I and R^II cAMP receptor protein levels in breast and colon cancer lines (FIG. 6); type: cell-based, human
Procedure: as §3, §4

[12] = system: R^II cAMP receptor protein (LS-174T); assay: photoaffinity labelling of R^II cAMP receptor protein, LS-174T; type: cell-based, human; details: 10 microM, 3 days; relative to control R^I
Procedure: as §3, §4, §5

LS-174T = assay: growth of LS-174T cells; type: cell-based; details: Homo sapiens, LS174T, 72 h; 10 microM, 3 days
Procedure: as §3, §1, §2

[13] = system: R^I cAMP receptor protein (MDA-MB-231); assay: photoaffinity labelling of R^I cAMP receptor protein, MDA-MB-231; type: cell-based, human; details: 10 microM, 3 days; control 1.0
Procedure: as §3, §4, §5

[14] = system: disseminated neuroblastomas; details: in a combined drug regimen; cited from earlier work

Which growth inhibitory effect ([1]; 0.5 mM) does the source give for `CC(C)Cn1c(=O)n(C)c(=O)c2[nH]cnc21` [1-methyl-3-isobutylxanthine] here?
Its growth inhibitory effect is “little or no growth inhibitory effect”.

What about the “enhancement of the effect of the site-selective compounds” value [1] of the same molecule?
Its value is “could not enhance the effect”.

And the DNA synthesis ([2]; added during first eight hours after serum addition)?
Its DNA synthesis is “subsequent DNA synthesis was not delayed”.

What about the DNA synthesis ([2]; added more than eight hours after serum addition) of the same molecule?
Its DNA synthesis is “inhibitory”.

What about the growth inhibitory effect ([3]; 0.5 mmol/L) of the same molecule?
The growth inhibitory effect was “little or no growth inhibitory effect”.

And the “enhancement of the analog effect” value [3]?
The value was “could not enhance the analog effect”.

For `Nc1ncnc2c1nc(N1CCCCC1)n2[C@@H]1O[C@@H]2COP(=O)(O)O[C@H]2[C@H]1O` [8-piperidino-cAMP, reference compound], which “site selectivity of binding, R^II” value (R^II) is on record?
Its value is “selectively binds to site 1”.

And the “site selectivity of binding, R^I” value (R^I receptor)?
Its value is “binds to site 2”.

Which “inhibition of YAC lymphoma cell proliferation” value (YAC lymphoma cell) does the source give for cholera toxin here?
The value was “almost complete inhibition”.

Which inhibition at 1 µM [4] does the source give for `CSc1nc2c(N)ncnc2n1[C@@H]1O[C@@H]2COP(=O)(O)O[C@H]2[C@H]1O` [8-methylthio-cAMP] here?
The inhibition at 1 µM was 15%.

What about the morphological change ([5]; 100 microM, three to four days) of the same molecule?
Its morphological change is “induced the morphological change”.

What about the “potency relative to 8-Cl-cAMP, times less potent” value [3] of the same molecule?
The value was 5 to 20 times.

For `Cn1c(=O)c2[nH]cnc2n(C)c1=O` [theophylline], which growth inhibitory effect ([1]; 0.1 mM) is on record?
Its growth inhibitory effect is “little or no growth inhibitory effect”.

What about the “enhancement of the effect of the site-selective compounds” value [1] of the same molecule?
The value was “could not enhance the effect”.

And the growth inhibitory effect ([3]; 0.1 mmol/L)?
Its growth inhibitory effect is “little or no growth inhibitory effect”.

What about the “enhancement of the analog effect” value [3] of the same molecule?
Its value is “could not enhance the analog effect”.

Which “growth inhibition, hormone-dependent breast cancer lines” value [6] does the source give for `CCCC(=O)Nc1ncnc2c1ncn2[C@@H]1O[C@@H]2COP(=O)(O)O[C@H]2[C@H]1O` [N^6 -butyryl cAMP] here?
The value was “growth inhibition only in the hormone-dependent breast cancer lines”.

Which “growth inhibition, in words” value [7] does the source give for `O=P1(O)OC[C@H]2O[C@@H](n3c(Sc4ccc(Cl)cc4)nc4c(Nc5ccccc5)ncnc43)[C@H](O)[C@@H]2O1` [N^6-phenyl-8-p-chlorophenylthio-cAMP] here?
The value was “most potent growth inhibition among the C-6,-8 disubstituted analogues”.

With `Nc1ncnc2c1nc(Cl)n2[C@@H]1O[C@H](COP(=O)(O)O)[C@@H](O)[C@H]1O` [8-Cl-AMP] as the molecule, how does the growth inhibition (cells) read?
Its growth inhibition is “no appreciable growth inhibition”.

Which results are given for `CNc1nc2c(N)ncnc2n1[C@@H]1O[C@@H]2COP(=O)(O)O[C@H]2[C@H]1O` [8-methylamino-cAMP]?
inhibition at 1 µM [4]: 10%; potency relative to 8-Cl-cAMP, times less potent [3]: 5 to 20 times

With `O=P1(O)OC[C@H]2O[C@@H](n3cnc4c(NCc5ccccc5)ncnc43)[C@H](O)[C@@H]2O1` [N^6 -benzyl-cAMP] as the molecule, how does the “R^I relative level” value [8] read?
Its value is 0.20 ± 0.02.

And the inhibition at 0.5 µM [4]?
Its inhibition at 0.5 µM is 15%.

And the activity at 10 µM (MDA-MB-231)?
Its activity at 10 µM is 55%.

And the “R^II relative level” value [9]?
Its value is 0.07 ± 0.01.

And the “fractions of cells in G1, S and G2/M phases, in words” value [10]?
The value was “not appreciably different”.

What about the morphological change ([5]; 0.5 microM alone, four days) of the same molecule?
Its morphological change is “did not induce a change in the cell morphology”.

And the morphological change ([5]; 50 microM, three to four days)?
The morphological change was “induced the morphological change”.

And the “increase in the ratio of R^II to R^I” value ([11]; densitometry)?
Its value is “two- to three-fold increase”.

What about the “48,000 R^I receptor protein, in words” value ([11]; three days, 10 microM) of the same molecule?
The value was “concomitant decrease”.

And the “52,000 MW (R^II) receptor protein, in words” value ([11]; three days, 10 microM)?
The value was “increased appreciably”.

And the “R^II relative level” value [12]?
The value was 0.25 ± 0.02.

And the activity at 10 µM (LS-174T)?
Its activity at 10 µM is 35%.

And the “R^I relative level” value [13]?
Its value is 0.25 ± 0.03.

With `O=C(Nc1ncnc2c1ncn2[C@@H]1O[C@@H]2COP(=O)(O)O[C@H]2[C@H]1O)c1ccccc1` [N^6 -benzoyl-cAMP] as the molecule, how does the inhibition at 0.5 µM [4] read?
Its inhibition at 0.5 µM is 10%.

Which “potency relative to 8-Cl-cAMP, times less potent” value [3] does the source give for `Nc1ncnc2c1nc(Br)n2[C@@H]1O[C@@H]2COP(=O)(O)O[C@H]2[C@H]1O` [8-bromo-cAMP] here?
The value was 5 to 20 times.

Which clinical result [14] does the source give for `COc1ccc(Cc2nccc3cc(OC)c(OC)cc23)cc1OC` [papaverine] here?
Its clinical result is “promising results”.
